Assay results from patent publication US20190015421A1, “Biomarkers for Treating Cancer with Apilimod” (LAM Therapeutics, Inc., priority 2016, published 2019).

Experiments:
[1] = active Crohn's disease; Sands et al. 2010; cited from earlier work
RCC-JF = experiment: apilimod 5 day assay in clear cell RCC line RCC-JF; type: cell-based; conditions: 120 h, VHL mutant, read-out: EC50 (nM) (avg, n = 2)
786-0 = experiment: apilimod 5 day assay in clear cell RCC line 786-0; type: cell-based; conditions: Homo sapiens, 120 h, 786-0 clear cell RCC line, VHL mutant, read-out: EC50 (nM) (avg, n = 2)
Caki-1 = experiment: apilimod 5 day assay in clear cell RCC line Caki-1; type: cell-based; conditions: Homo sapiens, 120 h, Caki-1 clear cell RCC line, VHL WT, read-out: EC50 (nM) (avg, n = 2)
TFEB = TFEB phosphorylation status and subcellular localization by immunoblotting; type: cell-based; conditions: SU-DHL-6 cells, apilimod 63 nM, 2 hr
Description: FIG. 4: nuclear and cytoplasmic levels of TFEB protein assayed by immunoblotting in SU-DHL-6 cells treated with apilimod (63 nM) for 2 hr.
TFEB is a master regulator of lysosomal gene expression and is activated by dephosphorylation followed by nuclear translocation (Roczniak-Ferguson et al., 2012; Settembre et al., 2012). Accordingly, we next looked at TFEB phosphorylation status and subcellular localization following apilimod treatment.

Caki-2 = experiment: apilimod 5 day assay in clear cell RCC line Caki-2; type: cell-based; conditions: Homo sapiens, 120 h, Caki-2 clear cell RCC line, VHL mutant, read-out: EC50 (nM) (avg, n = 2)
A498 = experiment: apilimod 5 day assay in clear cell RCC line A498; type: cell-based; conditions: Homo sapiens, 120 h, VHL mutant, read-out: EC50 (nM) (avg, n = 2)
[2] = test system: SU-DHL-10 and WSU-DLCL2 B-NHL lines; experiment: global gene expression and gene ontology analysis; type: cell-based; conditions: SU-DHL-10 and WSU-DLCL2 after apilimod treatment
Excerpt: FIG. 1: heatmap representation of gene expression changes in SU-DHL-10 and WSU-DLCL2 B-NHL lines upon apilimod treatment.
(§1) To further understand apilimod's cellular mechanism of action, we performed a global gene expression analysis of the changes occurring after apilimod treatment of two non-Hodgkins B cell lymphoma (B-NHL) tumor cell lines, SU-DHL-10 and WSU-DLCL2. […] We next performed a gene ontology analysis. […] We next used LysoTracker staining to examine the acidified compartment of the cells.

SU-DHL-6 and SU-DHL-10 = experiment: LysoTracker staining of the acidified compartment; type: cell-based; conditions: 200 nM apilimod, 24 and 48 hrs, compared to DMSO
Description: FIG. 3: LysoTracker staining in SU-DHL-6 and SU-DHL-10 for 24 and 48 hrs after treatment with 200 nM (blue) apilimod compared to DMSO treated control (red).
as §1

769-P = experiment: apilimod 5 day assay in clear cell RCC line 769-P; type: cell-based; conditions: Homo sapiens, 120 h, 769-P clear cell RCC line, VHL mutant, read-out: EC50 (nM) (avg, n = 2)
[3] = test system: RCC having a VHL mutation; experiment: apilimod cytotoxicity in RCC lines by VHL status; type: cell-based; conditions: clear cell RCC lines of Table 2, 5 day assay
RCC-FG2 = experiment: apilimod 5 day assay in clear cell RCC line RCC-FG2; type: cell-based; conditions: 120 h, VHL mutant, read-out: EC50 (nM) (avg, n = 2)
RCC-MF = experiment: apilimod 5 day assay in clear cell RCC line RCC-MF; type: cell-based; conditions: 120 h, read-out: EC50 (nM) (avg, n = 2)
A-704 = experiment: apilimod 5 day assay in clear cell RCC line A-704; type: cell-based; conditions: Homo sapiens, A704, 120 h, A-704 clear cell RCC line, VHL mutant, read-out: EC50 (nM) (avg, n = 2)
ACHN = experiment: apilimod 5 day assay in clear cell RCC line ACHN; type: cell-based; conditions: Homo sapiens, 120 h, VHL WT, read-out: EC50 (nM) (avg, n = 2)
TSC null cells = conditions: mTOR pathway constitutively active; previously shown; cited from earlier work
[4] = test system: clear cell RCC cell lines (n=5); experiment: anti-proliferative activity versus standard of care drugs, 5 day assays; type: cell-based; conditions: versus axitinib, sorafenib, pazopanib, sunitinib and rapamycin
Excerpt: FIG. 8: anti-proliferative activity of apilimod versus standard of care drugs in clear cell RCC cell lines (n=5) in 5 day assays. *Values denote the geometric mean.

KMRC-1 = experiment: apilimod 5 day assay in clear cell RCC line KMRC-1; type: cell-based; conditions: 120 h, KMRC-1 clear cell RCC line, VHL mutant, read-out: EC50 (nM) (avg, n = 2)
KMRC-3 = experiment: apilimod 5 day assay in clear cell RCC line KMRC-3; type: cell-based; conditions: 120 h, KMRC-3 clear cell RCC line, VHL mutant, read-out: EC50 (nM) (avg, n = 2)
RCC-ER = experiment: apilimod 5 day assay in clear cell RCC line RCC-ER; type: cell-based; conditions: 120 h, VHL mutant, read-out: EC50 (nM) (avg, n = 2)
Excerpt: FIG. 7B: example dose response of renal cell line RCC-ER and normal colon cell line CCD841CoN to apilimod in a 5 day assay.

[5] = test system: synovial IL-12 and IL-23 expression; conditions: patients with rheumatoid arthritis; Krauz et al. 2012; cited from earlier work
RCC-JW = experiment: apilimod 5 day assay in clear cell RCC line RCC-JW; type: cell-based; conditions: 120 h, read-out: EC50 (nM) (avg, n = 2)
[6] = test system: CA46 (TFEB-deficient B-NHL); experiment: apilimod dose response in CA46 pools over-expressing GFP control or TFEB; type: cell-based; conditions: CA46 pools over-expressing TFEB vs GFP control, 10-point dose response, 72 hrs
Description: FIG. 6: stable CA46 (TFEB-deficient B-NHL) pools over-expressing either GFP control or TFEB were treated with 10-point apilimod dose response for 72 hrs.
To further explore the role of TFEB in the cellular response to apilimod, the expression levels of TFEB across different cancer cell lines from the Cancer Cell Line Encyclopedia (CCLE) database (Barretina et al., 2012) were extracted and examined to determine whether there was a correlation between TFEB expression and the sensitivity of the cell line to apilimod. […] To test whether the increased TFEB expression contributes to the apilimod sensitivity observed in B-NHL, we overexpressed TFEB in the TFEB-deficient B-NHL cell line CA46.

## Cc1cccc(/C=N/Nc2cc(N3CCOCC3)nc(OCCc3ccccn3)n2)c1 [apilimod]
[1]
  efficacy over placebo: did not demonstrate efficacy over placebo
  tolerability: well tolerated
RCC-JF
  EC50: 60 nM
786-0
  EC50: 71 nM
Caki-1
  EC50: 2280 nM
TFEB
  TFEB dephosphorylation and nuclear translocation: induces TFEB dephosphorylation and nuclear translocation
Caki-2
  EC50: 3360 nM
A498
  EC50: 84000 nM
[2]
  gene ontology of genes induced by apilimod: clear enrichment of lysosomal genes
SU-DHL-6 and SU-DHL-10
  acidified compartment (LysoTracker staining): expansion of the acidified compartment
769-P
  EC50: 44 nM
[3]
  cytotoxicity by VHL status: preferentially cytotoxic in RCC having a VHL mutation
RCC-FG2
  EC50: 32 nM
RCC-MF
  EC50: 8 nM
A-704
  EC50: 11 nM
ACHN
  EC50: 9040 nM
TSC null cells
  cytotoxicity in TSC null cells: highly cytotoxic
[4]
  activity against clear cell RCCs relative to standard of care treatments: superior activity
KMRC-1
  EC50: 4 nM
KMRC-3
  EC50: 39 nM
RCC-ER
  EC50: 9 nM
[5]
  effect on synovial IL-12 and IL-23 expression: failed to alter synovial IL-12 and IL-23 expression
RCC-JW
  EC50: 27 nM
[6]
  enhancement of apilimod sensitivity by TFEB over-expression: greater than 50 fold
